Values after ≈ are worked out from the molar mass of the structure shown. Active and inactive are the calls of the source. No cut-off for these calls is given here. Non-standard residues stand in square brackets, D forms with d. Residues, ends and D or L forms follow the SMILES beside them. Bip = N[C@@H](Cc1ccc(-c2ccccc2)cc1)C(=O)O; pY = N[C@@H](Cc1ccc(OP(=O)(O)O)cc1)C(=O)O
Experiments:
[1] = system: Pseudomonas aeruginosa; assay: Inhibition of biofilm formation in Pseudomonas aeruginosa ATCC 27853 incubated for 24 hrs by crystal violet staining based assay; assay type: functional, organism-based
[2] = system: Cell membrane; assay: Induction of membrane damage in Pseudomonas aeruginosa ATCC 27853 assessed as change in membrane shape at 2 times MIC incubated for 30 to 120 mins by SEM analysis; assay type: subcellular; conditions: time 30-120 min
[3] = system: Pseudomonas aeruginosa; assay: Antibacterial activity against Pseudomonas aeruginosa 119 incubated for 18 to 24 hrs by broth microdilution method; assay type: functional; conditions: time 18-24 hrs
[4] = system: Klebsiella pneumoniae; assay: Additive antibacterial activity against Klebsiella pneumoniae ATCC 700603 assessed as fractional inhibitory concentration index at 1/4 to 4 times MIC incubated for 18 to 24 hrs in presence of kanamycin by checkerboard assay; assay type: functional; conditions: time 18-24 hrs
[5] = system: Klebsiella pneumoniae; assay: Additive antibacterial activity against Klebsiella pneumoniae ATCC 700603 assessed as fractional inhibitory concentration index at 1/4 to 4 times MIC incubated for 18 to 24 hrs in presence of ciprofloxacin by checkerboard assay; assay type: functional; conditions: time 18-24 hrs
[6] = system: Cell membrane; assay: Induction of cytoplasmic membrane rupture in Pseudomonas aeruginosa ATCC 27853 assessed as wrinkling at 2 times MIC incubated for 30 to 120 mins by SEM analysis; assay type: subcellular; conditions: time 30-120 min
[7] = system: Cell membrane; assay: Induction of cell membrane disruption in Staphylococcus aureus ATCC 25923 at 2 times MIC incubated for 2 hrs by SEM analysis; assay type: subcellular
[8] = system: Cell membrane; assay: Induction of cytoplasmic membrane rupture in Pseudomonas aeruginosa ATCC 27853 assessed as adhesion at 2 times MIC incubated for 30 to 120 mins by SEM analysis; assay type: subcellular; conditions: time 30-120 min
[9] = system: Cell membrane; assay: Induction of cytoplasmic membrane rupture in Pseudomonas aeruginosa ATCC 27853 assessed as leakage of cellular content at 2 times MIC incubated for 30 to 120 mins by SEM analysis; assay type: subcellular; conditions: time 30-120 min
[10] = system: Staphylococcus aureus; assay: Antibacterial activity against Staphylococcus aureus ATCC 25923 incubated for 18 to 24 hrs by broth microdilution method; assay type: functional; conditions: time 18-24 hrs
[11] = system: Pseudomonas aeruginosa; assay: Antibiofilm activity against Pseudomonas aeruginosa ATCC 27853 assessed as eradication of preformed biofilms incubated for 24 hrs by crystal violet staining based assay; assay type: functional, organism-based
[12] = system: Escherichia coli; assay: Antibacterial activity against Escherichia coli 780 incubated for 18 to 24 hrs by broth microdilution method; assay type: functional; conditions: time 18-24 hrs
[13] = system: Staphylococcus aureus; assay: Antibacterial activity against methicillin resistant Staphylococcus aureus 48 incubated for 18 to 24 hrs by broth microdilution method; assay type: functional; conditions: time 18-24 hrs
[14] = Stability in Kunming mouse serum assessed as half life measured upto 24 hrs by RP-HPLC method; assay type: ADME, cell-free
[15] = system: Escherichia coli; assay: Antibiofilm activity against Escherichia coli ATCC 25922 assessed as eradication of preformed biofilms incubated for 24 hrs by crystal violet staining based assay; assay type: functional, organism-based
[16] = system: Klebsiella pneumoniae; assay: Antibacterial activity against kanamycin resistant Klebsiella pneumoniae; assay type: functional
[17] = system: Cell membrane; assay: Induction of cytoplasmic membrane rupture in Pseudomonas aeruginosa ATCC 27853 assessed as blistering at 2 times MIC incubated for 30 to 120 mins by SEM analysis; assay type: subcellular; conditions: time 30-120 min
[18] = Cytotoxicity against HEK293T cells incubated for 1 hr by fluorescence based microplate reader assay; assay type: toxicity, cell-based, HEK-293T; conditions: human
[19] = system: Cell membrane; assay: Induction of cell membrane disruption in Pseudomonas aeruginosa ATCC 27853 at 2 times MIC incubated for 2 hrs by SEM analysis; assay type: subcellular
[20] = target: Chymotrypsin (Homo sapiens, UniProt Q99895+P17538+P40313+Q6GPI1); assay: Stability of compound assessed as chymotrypsin (unknown origin) mediated compound degradation; assay type: ADME, protein assay
[21] = system: Pseudomonas aeruginosa; assay: Antibacterial activity against Pseudomonas aeruginosa ATCC 27853 incubated for 18 to 24 hrs by broth microdilution method; assay type: functional; conditions: time 18-24 hrs
[22] = system: Klebsiella pneumoniae; assay: Inhibition of biofilm formation in Klebsiella pneumoniae ATCC 700603 incubated for 24 hrs by crystal violet staining based assay; assay type: functional, organism-based
[23] = system: Escherichia coli; assay: Antibacterial activity against Escherichia coli ATCC 25922 incubated for 18 to 24 hrs by broth microdilution method; assay type: functional; conditions: time 18-24 hrs
[24] = system: Staphylococcus aureus; assay: Inhibition of biofilm formation in Staphylococcus aureus ATCC 25923 at 1 time MIC incubated for 24 hrs by crystal violet staining based assay; assay type: functional, organism-based
[25] = system: Cell membrane; assay: Induction of cytoplasmic membrane rupture in Staphylococcus aureus ATCC 25923 assessed as shrinkage at 2 times MIC incubated for 30 to 120 mins by SEM analysis; assay type: subcellular; conditions: time 30-120 min
[26] = system: Cell membrane; assay: Induction of inner membrane permeabilization in Escherichia coli ML-35 assessed as increase in […] intensity measured every 5 mins for 135 mins by ONPG dye based microplate reader assay; assay type: subcellular
[27] = system: Escherichia coli; assay: Antibacterial activity against Escherichia coli 850 incubated for 18 to 24 hrs by broth microdilution method; assay type: functional; conditions: time 18-24 hrs
[28] = system: Bacillus subtilis; assay: Antibacterial activity against Bacillus subtilis ATCC 23857 incubated for 18 to 24 hrs by broth microdilution method; assay type: functional; conditions: time 18-24 hrs
[29] = system: Klebsiella pneumoniae; assay: Inhibition of kanamycin resistance in Klebsiella pneumoniae ATCC 700603 at 1:1 compound: kanamycin molar ratio measured after 20 generation; assay type: functional, organism-based
[30] = system: Cell membrane; assay: Induction of outer membrane permeabilization in Escherichia coli ATCC 25922 assessed as increase in fluorescence intensity incubated for 1 min by NPN dye based microplate reader assay; assay type: subcellular
[31] = system: Cell membrane; assay: Induction of cytoplasmic membrane rupture in Staphylococcus aureus ATCC 25923 assessed as content leakage at 2 times MIC incubated for 30 to 120 mins by SEM analysis; assay type: subcellular; conditions: time 30-120 min
[32] = system: Klebsiella pneumoniae; assay: Antibiofilm activity against Klebsiella pneumoniae ATCC 700603 assessed as eradication of preformed biofilms at 2 to 4 times MIC incubated for 24 hrs by crystal violet staining based assay; assay type: functional, organism-based
[33] = system: Klebsiella pneumoniae; assay: Synergistic antibacterial activity against Klebsiella pneumoniae ATCC 700603 assessed as fractional inhibitory concentration index at 1/4 to 4 times MIC incubated for 18 to 24 hrs in presence of polymyxin B by checkerboard assay; assay type: functional; conditions: time 18-24 hrs
[34] = Toxicity in ip dosed BALB/c mouse measured after 14 days; assay type: organism-based; conditions: in vivo, time 14 day
[35] = system: Staphylococcus aureus; assay: Antibacterial activity against methicillin resistant Staphylococcus aureus ATCC 33591 incubated for 18 to 24 hrs by broth microdilution method; assay type: functional; conditions: time 18-24 hrs
[36] = system: Staphylococcus aureus; assay: Antibiofilm activity against Staphylococcus aureus ATCC 25923 assessed as eradication of preformed biofilms incubated for 24 hrs by crystal violet staining based assay; assay type: functional, organism-based
[37] = system: Staphylococcus aureus; assay: Antibacterial activity against Staphylococcus aureus 794 incubated for 18 to 24 hrs by broth microdilution method; assay type: functional; conditions: time 18-24 hrs
[38] = system: Klebsiella pneumoniae; assay: Antibiofilm activity against Klebsiella pneumoniae ATCC 700603 assessed as eradication of preformed biofilms incubated for 24 hrs by crystal violet staining based assay; assay type: functional, organism-based
[39] = system: Cell membrane; assay: Induction of cytoplasmic membrane rupture in Staphylococcus aureus ATCC 25923 assessed as adhesion at 2 times MIC incubated for 30 to 120 mins by SEM analysis; assay type: subcellular; conditions: time 30-120 min
[40] = system: Klebsiella pneumoniae; assay: Antibacterial activity against Klebsiella pneumoniae ATCC 700603 incubated for 18 to 24 hrs by broth microdilution method; assay type: functional; conditions: time 18-24 hrs
[41] = system: Escherichia coli; assay: Antibacterial activity against Escherichia coli 25922 assessed as interaction with LPS by measuring bacterial mortality at 2 times MIC preincubated with LPS for 1 hr followed by bacterial addition and measured after overnight by microplate reader assay; assay type: functional, organism-based
[42] = system: Klebsiella pneumoniae; assay: Durg resistance development in Klebsiella pneumoniae ATCC 700603 measured after 20 passage; assay type: functional, organism-based
[43] = system: Cell membrane; assay: Induction of inner membrane permeabilization in Escherichia coli ML-35 assessed as increase in […] intensity by ONPG dye based microplate reader assay; assay type: subcellular

CC(C)C[C@H](NC(=O)[C@H](CC(C)C)NC(=O)[C@H](Cc1ccc(OP(=O)(O)O)cc1)NC(=O)[C@H](CCCCN)NC(=O)[C@H](CC(C)C)NC(=O)[C@H](CCCNC(=N)N)NC(=O)[C@H](CCCCN)NC(=O)[C@H](Cc1ccc(-c2ccccc2)cc1)NC(=O)[C@H](CC(C)C)NC(=O)CN)C(N)=O (H-GL[Bip]KRLK[pY]LL-NH2)
inhibition [1]: Dose-dependent-effect; Inhibition Comparable To Polymyxin B | Activity [2]: Active | MIC [3]: 15 µM (≈ 21.1 µg/mL) | fractional inhibitory concentration index (FICI) [4]: 0.563 | fractional inhibitory concentration index (FICI) [5]: 0.563 | Activity [6]: Active | Activity [7]: Active; More Potent Than Polymyxin B And Vancomycin | Activity [8]: Active | Activity [9]: Active | MIC [10]: 8 µM (≈ 11.2 µg/mL) | Activity [11]: Dose-dependent-effect; Superior Activity Compared To Polymyxin B And Vancomycin | MIC [12]: 8 µM (≈ 11.2 µg/mL) | MIC [13]: 8 µM (≈ 11.2 µg/mL) | half-life [14]: 8.51 h | Activity [15]: Dose-dependent-effect; Superior Activity Compared To Polymyxin B And Vancomycin | MIC [16]: 8 µM (≈ 11.2 µg/mL) | Activity [17]: Active | CC50 at 1 h [18]: 168 µM | Activity [19]: Active; More Potent Than Polymyxin B And Vancomycin | Stability [20]: Stable | MIC [21]: 16 µM (≈ 22.5 µg/mL) | inhibition [22]: Dose-dependent-effect; Inhibition Comparable To Polymyxin B | MIC [23]: 8 µM (≈ 11.2 µg/mL) | inhibition [24]: Active | Activity [25]: Active | Activity [26]: Dose-dependent-effect; More Potent Than 1% Triton X-100 And Polymyxin B | MIC [27]: 8 µM (≈ 11.2 µg/mL) | MIC [28]: 8 µM (≈ 11.2 µg/mL) | inhibition [29]: Active | Activity [30]: Dose-dependent-effect | Activity [31]: Active | Activity [32]: Active | fractional inhibitory concentration index (FICI) [33]: 0.5 | LD50 at 336 h [34]: 283 mg/kg | MIC [35]: 8 µM (≈ 11.2 µg/mL) | Activity [36]: Dose-dependent-effect; Superior Activity Compared To Polymyxin B And Vancomycin | MIC [37]: 8 µM (≈ 11.2 µg/mL) | Activity [38]: Dose-dependent-effect; Superior Activity Compared To Polymyxin B And Vancomycin | Activity [39]: Active | MIC [40]: 8 µM (≈ 11.2 µg/mL) | Activity [41]: Active; Activity Comparable To Polymyxin B | Activity [42]: inactive | Activity [43]: Time-dependent-effect; More Potent Than 1% Triton X-100 And Polymyxin B
